Assay results: patent US11090319B2, “Therapeutic uses of pharmaceutical compositions comprising cyclic boronic acid ester derivatives” (Melinta Subsidiary Corp., priority 2010, dated 2021)
Where two headings read alike, the source gives them in different places.

Assays:
[1] = tested on: SA1000 Salmonella CMY-2; test: Ceftazidime MIC with fixed concentration of BLI; format: cell-based; conditions: SA1000 CMY-2; for Ceftazidime MIC with cyclic boronic acid ester derivative: derivative at 10 μg/mL
Method: (§1) Next, ceftazidime potentiation activity of several cyclic boronic acid ester derivatives was tested using a larger panel of strains expressing β-lactamase hydrolyzing enzymes. Ceftazidime MICs were determined alone and in the presence of fixed concentrations of various cyclic boronic acid ester derivatives.

[2] = tested on: ec302 Escherichia coli TEM-10; test: Ceftazidime MIC with fixed concentration of BLI; format: cell-based; conditions: ec302 TEM-10; for Ceftazidime MIC with cyclic boronic acid ester derivative: derivative at 10 μg/mL
Method: as §1

[3] = tested on: ECL1003 Enterobacter cloacae Hyper AmpC expression; test: Ceftazidime MIC with fixed concentration of BLI; format: cell-based; conditions: for Ceftazidime MIC with cyclic boronic acid ester derivative: derivative at 10 μg/mL
Method: as §1

[4] = tested on: ec300 Escherichia coli TEM-3; test: Ceftazidime MIC with fixed concentration of BLI; format: cell-based; conditions: ec300 TEM-3; for Ceftazidime MIC with cyclic boronic acid ester derivative: derivative at 10 μg/mL
Method: as §1

[5] = tested on: KP1013 Klebsiella pneumoniae CMY-2; test: Ceftazidime MIC with fixed concentration of BLI; format: cell-based; conditions: KP1013 CMY-2; for Ceftazidime MIC with cyclic boronic acid ester derivative: derivative at 10 μg/mL
Method: as §1

[6] = tested on: CF1001 Citrobacter freundii Hyper AmpC expression; test: Ceftazidime MIC with fixed concentration of BLI; format: cell-based; conditions: for Ceftazidime MIC with cyclic boronic acid ester derivative: derivative at 10 μg/mL
Method: as §1

[7] = tested on: EC1016 Escherichia coli FOX-5; test: Ceftazidime MIC with fixed concentration of BLI; format: cell-based; conditions: EC1016 FOX-5; for Ceftazidime MIC with cyclic boronic acid ester derivative: derivative at 10 μg/mL
Method: as §1

[8] = tested on: AB1052 Acinetobacter baumannii OXA-24; test: Ceftazidime MIC with fixed concentration of BLI; format: cell-based; conditions: AB1052 OXA-24; for Ceftazidime MIC with cyclic boronic acid ester derivative: derivative at 10 μg/mL
Method: as §1

[9] = tested on: KP1014 Klebsiella pneumoniae Vim-1; test: Ceftazidime MIC with fixed concentration of BLI; format: cell-based; conditions: KP1014 Vim-1; for Ceftazidime MIC with cyclic boronic acid ester derivative: derivative at 10 μg/mL
Method: as §1

[10] = tested on: KP1006 Klebsiella pneumoniae CTX-M2; test: Ceftazidime MIC with fixed concentration of BLI; format: cell-based; conditions: for Ceftazidime MIC with cyclic boronic acid ester derivative: derivative at 10 μg/mL
Method: as §1

[11] = target: KPC-2, lysate of KP1008 (Klebsiella pneumoniae, UniProt Q9F663); test: Inhibition of ceftazidime hydrolysis by bacterial lysate
[12] = target: various β-lactamases (bacterial lysates) (Escherichia coli, UniProt A0A5R8T042); test: biochemical; format: biochemical; conditions: read-out: AZT IC50 KP1009 CTX-M-15
[13] = target: various β-lactamases (bacterial lysates) (Klebsiella pneumoniae, UniProt Q9F663, H272Y); test: biochemical; format: biochemical
[14] = target: various β-lactamases (bacterial lysates) (Klebsiella pneumoniae, UniProt Q9F663); test: biochemical; format: biochemical; conditions: aztreonam cleavage
[15] = target: CTX-M-14, lysate of KP1005 (Escherichia coli, UniProt Q9L5C7); test: Inhibition of ceftazidime hydrolysis by bacterial lysate
[16] = target: SHV-2, lysate of ec306 (Escherichia coli, UniProt P0A9Z7); test: as above
[17] = target: OXA-10, lysate of KP1007 (Pseudomonas aeruginosa, UniProt P14489); test: as above
[18] = tested on: SM1000 Serratia marcescens SME-2; test: Checkerboard assay, biapenem potentiation; conditions: Biapenem MIC 8-fold; SM1000 SME-2 class A
[19] = target: OXA-2, lysate of KX1000 (Salmonella typhimurium, UniProt P0A1V8); test: Inhibition of ceftazidime hydrolysis by bacterial lysate
[20] = target: KPC-2, lysate of KP1004 (Klebsiella pneumoniae, UniProt Q9F663); test: as above
[21] = target: GES-1, lysate of pa 1063 (Klebsiella pneumoniae, UniProt Q9KJY7); test: as above
[22] = target: SHV-5, lysate of ec308 (Escherichia coli, UniProt P0AD63, E235K/G234S); test: as above
[23] = tested on: ECL1004 Enterobacter cloacae NMC-A; test: Checkerboard assay, biapenem potentiation; conditions: Biapenem MIC 8-fold; ECL1004 NMC-A class A
[24] = tested on: AB1052 Acinetobacter baumannii OXA-24; test: Checkerboard assay, biapenem potentiation; conditions: Biapenem MIC 8-fold; AB1052 OXA-24 class D
[25] = target: SHV-12, lysate of KP1010 (Klebsiella pneumoniae, UniProt P0AD64, E235K/G234S/L31Q); test: Inhibition of ceftazidime hydrolysis by bacterial lysate
[26] = target: CTX-M-15, lysate of KP1009 (Escherichia coli, UniProt Q9EXV5); test: as above
[27] = target: DHA-1, lysate of EC1014 (Escherichia coli, UniProt Q84AE0); test: as above; conditions: read-out: IC50 of inhibition of Ceftazidime hydrolysis; EC1014 DHA-1
[28] = target: various β-lactamases (bacterial lysates) (Escherichia coli, UniProt Q53TY8); test: Inhibition of nitrocefin cleavage by bacterial lysates, Table 11; format: biochemical; conditions: lysate EC1010 pAmpC (CMY-6), read-out: NCF IC50 EC1010 pAmpC (CMY-6)
[29] = target: SME-2, lysate of SM1000 (Serratia marcescens, UniProt P52682); test: Inhibition of biapenem hydrolysis by bacterial lysate; conditions: read-out: IC50 of inhibition of biapenem hydrolysis; SM1000 SME-2
[30] = Escherichia coli, read-out: Ceftazidime MIC Alone
[31] = Klebsiella pneumoniae, read-out: Ceftazidime MIC Alone
[32] = lysate KP1004 KPC-2, read-out: AZT IC50 KP1004 KPC-2 (converted)
[33] = lysate KP1008 KPC-2, read-out: AZT IC50 KP1008 KPC-2

various β-lactamases (bacterial lysates) (Escherichia coli, UniProt A0A5R8T042), sequence (A0A5R8T042 29-291): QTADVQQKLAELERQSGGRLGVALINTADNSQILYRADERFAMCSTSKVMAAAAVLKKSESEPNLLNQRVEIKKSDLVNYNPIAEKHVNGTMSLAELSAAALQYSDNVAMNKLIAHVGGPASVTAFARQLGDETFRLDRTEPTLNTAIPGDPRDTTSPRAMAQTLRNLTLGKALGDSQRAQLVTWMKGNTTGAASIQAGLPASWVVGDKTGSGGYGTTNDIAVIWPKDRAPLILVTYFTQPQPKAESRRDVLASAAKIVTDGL
CTX-M-15, lysate of KP1009, sequence (Q9EXV5 entry or part of it): as the sequence (A0A5R8T042 29-291) above

Row | SMILES | IC50 [11] [µM] | IC50 [12] [µM] | IC50 [13] [µM] | IC50 [14, 32] [µM] | IC50 [14, 33] [µM] | IC50 [15] [µM] | IC50 [16] [µM] | IC50 [17] [µM] | Ceftazidime MIC with cyclic boronic acid ester derivative [1] | Ceftazidime MIC with cyclic boronic acid ester derivative [2] | Ceftazidime MIC with cyclic boronic acid ester derivative [3] | Ceftazidime MIC with cyclic boronic acid ester derivative [4] | Ceftazidime MIC with cyclic boronic acid ester derivative [5] | Ceftazidime MIC with cyclic boronic acid ester derivative [6] | IC50 [19] [µM] | IC50 [21] [µM] | IC50 [22] [µM] | IC50 [25] [µM] | IC50 [26] [µM] | IC50 [27] [µM] | other results
1 | CC(C)(O/N=C(\C(=O)N[C@@H]1C(=O)N2C(C(=O)[O-])=C(C[n+]3ccccc3)CS[C@H]12)c1csc(N)n1)C(=O)O [Ceftazidime, reference compound] | – | – | – | – | – | – | – | – | – | – | – | – | – | – | – | – | – | – | – | – | MIC ([1]; Salmonella, read-out: Ceftazidime MIC Alone): > 8 µg/mL; MIC [2, 30]: > 8 µg/mL; MIC ([3]; Enterobacter cloacae, read-out: Ceftazidime MIC Alone): > 8 µg/mL; MIC [4, 30]: > 8 µg/mL; MIC [5, 31]: > 8 µg/mL; MIC ([6]; Citrobacter freundii, read-out: Ceftazidime MIC Alone): > 8 µg/mL; MIC [7, 30]: > 8 µg/mL; MIC ([8]; Acinetobacter baumannii, read-out: Ceftazidime MIC Alone): > 8 µg/mL; MIC [9, 31]: > 8 µg/mL; MIC [10, 31]: 1 to 8 µg/mL
2 | CC(=O)N[C@H]1CCC(CC(=O)O)OB1O (stereo partly drawn) [Compound 3, 2-((3R)-3-acetamido-2-hydroxy-1,2-oxaborinan-6-yl)acetic acid] | 0.465 to 4.65 | > 9.3 | < 2.33 | < 2.33 | 2.33 to 9.3 | > 4.65 | > 4.65 | > 4.65 | Z (MIC of greater than 8 μg/mL) | Z (MIC of greater than 8 μg/mL) | Z (MIC of greater than 8 μg/mL) | Z (MIC of greater than 8 μg/mL) | Z (MIC of greater than 8 μg/mL) | Z (MIC of greater than 8 μg/mL) | > 4.65 | > 4.65 | > 4.65 | > 4.65 | > 4.65 | > 4.65 | Ceftazidime MIC with cyclic boronic acid ester derivative [7]: Z (MIC of greater than 8 μg/mL); Ceftazidime MIC with cyclic boronic acid ester derivative [8]: Z (MIC of greater than 8 μg/mL); Ceftazidime MIC with cyclic boronic acid ester derivative [9]: Z (MIC of greater than 8 μg/mL); Ceftazidime MIC with cyclic boronic acid ester derivative [10]: X (MIC of 1 μg/mL or less); MPC8 [18]: Y (MPC8 of 0.16 μg/mL to 1 μg/mL); IC50 [20]: < 0.465 µM; MPC8 [23]: X (MPC8 of less than 0.16 μg/mL); MPC8 [24]: Z (MPC8 of greater than 1 μg/mL)
3 | O=C(O)CC1CC[C@H](NC(=O)C2CC2)B(O)O1 (stereo partly drawn) [Compound 4, 2-((3R)-3-(cyclopropanecarboxamido)-2-hydroxy-1,2-oxaborinan-6-yl)acetic acid] | < 0.415 | 2.07 to 8.3 | < 2.07 | < 2.07 | < 2.07 | > 4.15 | > 4.15 | > 4.15 | Y (MIC of greater than 1 μg/mL to 8 μg/mL) | Z (MIC of greater than 8 μg/mL) | Z (MIC of greater than 8 μg/mL) | Z (MIC of greater than 8 μg/mL) | Y (MIC of greater than 1 μg/mL to 8 μg/mL) | Z (MIC of greater than 8 μg/mL) | > 4.15 | 0.415 to 4.15 | > 4.15 | > 4.15 | > 4.15 | > 4.15 | IC50 [28]: > 8.3 µM; Ceftazidime MIC with cyclic boronic acid ester derivative [7]: Z (MIC of greater than 8 μg/mL); Ceftazidime MIC with cyclic boronic acid ester derivative [8]: Z (MIC of greater than 8 μg/mL); Ceftazidime MIC with cyclic boronic acid ester derivative [9]: Z (MIC of greater than 8 μg/mL); Ceftazidime MIC with cyclic boronic acid ester derivative [10]: X (MIC of 1 μg/mL or less); MPC8 [18]: X (MPC8 of less than 0.16 μg/mL); IC50 [20]: < 0.415 µM; MPC8 [23]: X (MPC8 of less than 0.16 μg/mL); MPC8 [24]: Z (MPC8 of greater than 1 μg/mL); IC50 [29]: 0.415 to 4.15 µM
4 | O=C(O)C[C@@H]1CC[C@H](NC(=O)Cc2cccs2)B(O)O1 [Compound 5, 2-((3R,6S)-2-hydroxy-3-(2-(thiophen-2-yl)acetamido)-1,2-oxaborinan-6-yl)acetic acid] | – | 1.68 to 6.73 | < 1.68 | < 1.68 | < 1.68 | < 0.337 | 0.337 to 3.37 | 0.337 to 3.37 | Y (MIC of greater than 1 μg/mL to 8 μg/mL) | Z (MIC of greater than 8 μg/mL) | Z (MIC of greater than 8 μg/mL) | Y (MIC of greater than 1 μg/mL to 8 μg/mL) | Y (MIC of greater than 1 μg/mL to 8 μg/mL) | Y (MIC of greater than 1 μg/mL to 8 μg/mL) | < 0.337 | < 0.337 | > 3.37 | 0.337 to 3.37 | < 0.337 | 0.337 to 3.37 | IC50 [28]: > 6.73 µM; Ceftazidime MIC with cyclic boronic acid ester derivative [7]: Z (MIC of greater than 8 μg/mL); Ceftazidime MIC with cyclic boronic acid ester derivative [8]: Z (MIC of greater than 8 μg/mL); Ceftazidime MIC with cyclic boronic acid ester derivative [9]: Z (MIC of greater than 8 μg/mL); Ceftazidime MIC with cyclic boronic acid ester derivative [10]: X (MIC of 1 μg/mL or less); MPC8 [18]: Y (MPC8 of 0.16 μg/mL to 1 μg/mL); MPC8 [23]: Y (MPC8 of 0.16 μg/mL to 1 μg/mL); MPC8 [24]: Z (MPC8 of greater than 1 μg/mL); IC50 [29]: < 0.337 µM
5 | Cl.N[C@H]1CCC(CC(=O)O)OB1O (stereo partly drawn) [Compound 7, 2-((3R)-3-amino-2-hydroxy-1,2-oxaborinan-6-yl)acetic acid hydrochloride] | > 4.77 | – | – | – | – | > 4.77 | > 4.77 | > 4.77 | – | Z (MIC of greater than 8 μg/mL) | – | Z (MIC of greater than 8 μg/mL) | – | – | > 4.77 | 0.477 to 4.77 | > 4.77 | > 4.77 | 0.477 to 4.77 | > 4.77 | IC50 [20]: > 4.77 µM
